# Data as given in US20070154965A1, “Chlorotoxin-labeled nanoparticle compositions and methods for targeting primary brain tumors” (priority 2005, published 2007).
# Test system: 9L cells
# Assay: Transwell migration (matrigel invasion) assay
# Type: cell-based, rat
# Conditions: 4 μg/ml free chlorotoxin, 24 hrs
# Procedure: Transwell migration assay. The assay was performed by a method reported previously to assess the bioactivity of chlorotoxin. See Deshane et al., J. Biol. Chem. 2003, 278:4135-4144, expressly incorporated herein in its entirety. Prior to the experiment, matrigel invasion chamber inserts (BD Biosciences, Bedford, Mass.) of 8 μm pore size were rehydrated. The lower surfaces of the chamber inserts were immersed in 5 μg/ml solution of vitronectin for 8 hours. 9L cells were then plated at a density of 2.5×10^5 cells per chamber. Cells were treated with solutions of 4 μg/ml of chlorotoxin, and 10 μg Fe/ml of NPCs, respectively. The chambers were then incubated in a 37° C. humidified incubator maintained at 5% CO2 for 24 hrs. The cells on the upper inserts were scrubbed off, and the invaded cells were fixed and stained with Diff-Quik stain kit (IMEB INC., Chicago, Ill.). The filters were then detached from the inserts and mounted on glass slides using immersion oil and imaged on a Nikon E800 upright microscope. Relative inhibition of cell invasion was determined through reduction of migrating cells in presence of chlorotoxin and NPCs. Triplicates of each sample were prepared and cell counts were obtained from five random spots on each filter. The data was then averaged and presented as a relative number of invasive cells per treatment.
substance,measurement,value
chlorotoxin,inhibition of cell invasion,approximately 88%
